In ChEMBL document CHEMBL1201862, “PubChem BioAssay data set” (2004):
One block for each compound: values may come before it. Active and inactive are the calls of the source.

How the values were obtained:
[1] = target: DNA dC->dU-editing enzyme APOBEC-3G (Homo sapiens, UniProt Q9HC16); assay: Dose Response confirmation of small molecule APOBEC3G DNA Deaminase Inhibitors via a fluorescence-based single-stranded DNA deaminase assay. [Related pubchem assays (depositor defined):AID493012, AID493028]; assay type: functional
DNA dC->dU-editing enzyme APOBEC-3G, sequence (Q9HC16 whole entry): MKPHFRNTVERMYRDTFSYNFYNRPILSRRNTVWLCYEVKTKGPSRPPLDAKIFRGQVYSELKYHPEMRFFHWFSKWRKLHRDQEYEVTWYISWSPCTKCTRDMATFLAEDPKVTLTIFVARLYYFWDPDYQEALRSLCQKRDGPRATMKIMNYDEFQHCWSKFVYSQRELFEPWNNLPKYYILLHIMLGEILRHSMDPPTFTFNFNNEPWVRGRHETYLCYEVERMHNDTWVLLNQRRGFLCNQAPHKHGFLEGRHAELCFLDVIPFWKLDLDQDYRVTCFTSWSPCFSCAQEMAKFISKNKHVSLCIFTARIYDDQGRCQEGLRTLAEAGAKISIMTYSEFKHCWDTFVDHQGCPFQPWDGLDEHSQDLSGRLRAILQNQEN

[2] = target: DNA dC->dU-editing enzyme APOBEC-3A (Homo sapiens, UniProt P31941); assay: A3A deaminase inhibition for selectivity – biochemical, dose response (AID 504722); assay type: functional
DNA dC->dU-editing enzyme APOBEC-3A, sequence (P31941 whole entry): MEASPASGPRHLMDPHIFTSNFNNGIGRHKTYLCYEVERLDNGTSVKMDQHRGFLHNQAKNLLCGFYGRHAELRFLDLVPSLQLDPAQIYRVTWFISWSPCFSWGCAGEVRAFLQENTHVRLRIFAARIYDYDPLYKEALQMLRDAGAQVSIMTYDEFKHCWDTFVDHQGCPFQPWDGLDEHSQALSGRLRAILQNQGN

Coagulation factor XII = target: T1, Coagulation factor XII (Homo sapiens, UniProt P00748); assay: Factor XIIa Dose Response Confirmation from Single Well HTS. [Related pubchem assays (depositor defined):AID701]; assay type: functional
T1 sequence (P00748 whole entry): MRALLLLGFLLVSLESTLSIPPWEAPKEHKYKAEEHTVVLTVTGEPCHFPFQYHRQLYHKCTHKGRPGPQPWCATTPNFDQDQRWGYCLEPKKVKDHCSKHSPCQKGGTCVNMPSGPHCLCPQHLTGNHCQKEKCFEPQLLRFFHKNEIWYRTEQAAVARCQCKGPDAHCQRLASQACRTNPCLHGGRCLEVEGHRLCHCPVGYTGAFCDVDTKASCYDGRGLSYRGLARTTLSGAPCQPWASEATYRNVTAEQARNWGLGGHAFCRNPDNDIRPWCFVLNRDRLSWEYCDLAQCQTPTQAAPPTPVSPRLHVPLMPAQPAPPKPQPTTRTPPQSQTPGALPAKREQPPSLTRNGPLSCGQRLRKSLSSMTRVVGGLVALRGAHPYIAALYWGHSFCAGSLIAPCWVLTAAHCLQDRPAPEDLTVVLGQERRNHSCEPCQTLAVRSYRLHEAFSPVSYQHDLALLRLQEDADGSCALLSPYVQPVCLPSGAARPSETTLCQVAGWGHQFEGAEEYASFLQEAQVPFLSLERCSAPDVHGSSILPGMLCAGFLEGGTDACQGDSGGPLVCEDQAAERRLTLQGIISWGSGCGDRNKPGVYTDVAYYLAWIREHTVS

[3] = target: Eukaryotic translation initiation factor 4E (Mus musculus, UniProt P63073); assay: blockers of eIF4G binding by eIF4E – biochemical, TR-FRET, dose response (AID 855); assay type: functional;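 also: potency for disrupting eIF4E binding to eIF4GI seen as loss of FRET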
Eukaryotic translation initiation factor 4E, sequence (P63073 whole entry): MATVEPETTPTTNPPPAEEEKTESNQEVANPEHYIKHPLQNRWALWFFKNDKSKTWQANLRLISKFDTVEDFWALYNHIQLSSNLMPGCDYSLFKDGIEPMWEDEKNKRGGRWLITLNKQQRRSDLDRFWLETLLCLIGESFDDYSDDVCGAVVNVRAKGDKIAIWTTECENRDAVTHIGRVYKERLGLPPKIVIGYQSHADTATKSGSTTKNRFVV

[4] = HEK-293T cell viability reduction – luminescence, B-cell screen hits, cytotoxicity control for BCR NF-kB inhibitor project, dose response (AID 489021); assay type: functional, cell-based;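 also: HEK-293T cells carrying an NF-kB luciferase reporter; cells exposed to compound for about 14 hours before viability readout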
[5] = target: T2, Runt-related transcription factor 1/Core-binding factor subunit beta (Homo sapiens, UniProt Q01196+Q13951); assay: Runt domain/CBFb-SMMHC interaction disruptors – biochemical, TR-FRET (AID 1438); assay type: protein assay
T2 sequence (Q01196 whole entry, the tested form may be a part): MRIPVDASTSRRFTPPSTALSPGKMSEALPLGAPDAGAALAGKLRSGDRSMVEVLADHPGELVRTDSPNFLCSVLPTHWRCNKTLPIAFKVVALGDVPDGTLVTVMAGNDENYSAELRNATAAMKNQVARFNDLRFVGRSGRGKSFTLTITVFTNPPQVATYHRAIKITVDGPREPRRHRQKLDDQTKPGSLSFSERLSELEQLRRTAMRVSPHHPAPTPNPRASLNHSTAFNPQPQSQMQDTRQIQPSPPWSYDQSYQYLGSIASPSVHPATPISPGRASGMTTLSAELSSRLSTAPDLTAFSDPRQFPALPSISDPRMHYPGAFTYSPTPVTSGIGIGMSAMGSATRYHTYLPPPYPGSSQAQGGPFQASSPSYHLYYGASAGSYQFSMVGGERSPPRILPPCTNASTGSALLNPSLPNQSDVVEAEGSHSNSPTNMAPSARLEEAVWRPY
T2 sequence (Q13951 whole entry, the tested form may be a part): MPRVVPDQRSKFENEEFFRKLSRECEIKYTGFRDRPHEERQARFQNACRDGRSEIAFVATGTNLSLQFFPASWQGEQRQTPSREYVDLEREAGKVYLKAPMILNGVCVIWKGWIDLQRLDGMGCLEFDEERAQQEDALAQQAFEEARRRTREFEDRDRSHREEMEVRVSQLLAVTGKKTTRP

[6] = target: T3, Zinc finger protein mex-5 (Caenorhabditis elegans, UniProt Q9XUB2); assay: potency of MEX-5 RNA-binding blockers – biochemical, C. elegans, fluorescence polarization, dose response (AID 1960)
T3 sequence (Q9XUB2 whole entry): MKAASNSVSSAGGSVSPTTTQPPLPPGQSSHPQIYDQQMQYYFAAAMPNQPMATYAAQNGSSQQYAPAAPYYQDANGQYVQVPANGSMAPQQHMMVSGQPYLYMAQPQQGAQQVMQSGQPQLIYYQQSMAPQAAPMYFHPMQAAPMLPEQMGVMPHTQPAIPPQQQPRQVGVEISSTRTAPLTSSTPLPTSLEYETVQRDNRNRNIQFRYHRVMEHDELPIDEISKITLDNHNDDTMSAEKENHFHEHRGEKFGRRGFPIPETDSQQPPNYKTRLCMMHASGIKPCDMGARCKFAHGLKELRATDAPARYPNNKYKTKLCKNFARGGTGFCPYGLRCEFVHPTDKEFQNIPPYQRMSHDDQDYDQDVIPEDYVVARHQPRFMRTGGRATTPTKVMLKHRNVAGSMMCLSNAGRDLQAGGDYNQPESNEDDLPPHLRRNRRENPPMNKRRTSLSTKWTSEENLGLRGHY

[7] = target: T4, RNA-binding protein pos-1 (Caenorhabditis elegans, UniProt G5EF15); assay: disruptors of C. elegans POS-1 RNA interaction – biochemical, fluorescence polarization, dose response (AID 1964);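 also: purified POS-1 fused to maltose binding protein made in E. coli; potency of compounds blocking POS-1 binding to fluorescent RNA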
T4 sequence (G5EF15 whole entry): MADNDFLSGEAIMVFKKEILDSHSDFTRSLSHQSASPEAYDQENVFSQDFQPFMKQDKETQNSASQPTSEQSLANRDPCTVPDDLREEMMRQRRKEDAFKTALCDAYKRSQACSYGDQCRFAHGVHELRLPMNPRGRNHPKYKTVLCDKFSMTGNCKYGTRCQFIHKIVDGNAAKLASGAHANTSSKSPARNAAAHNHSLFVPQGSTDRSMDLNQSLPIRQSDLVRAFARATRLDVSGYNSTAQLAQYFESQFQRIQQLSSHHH

[8] = target: T2, Runt-related transcription factor 1/Core-binding factor subunit beta; assay: disruptors of Runt domain/CBFb-SMMHC interaction – biochemical, FRET, Cerulean-Runt, Venus-CBFb-SMMHC, uHTS, […] (AID 1434); assay type: protein assay
[9] = target: Intestinal-type alkaline phosphatase (Homo sapiens, UniProt P09923); assay: Dose Response confirmation of uHTS hits from a small molecule inhibitors of human intestinal alkaline phosphatase via a luminescent assay. [Related pubchem assays (depositor defined):AID2544, AID2574]; assay type: functional
Intestinal-type alkaline phosphatase, sequence (P09923 whole entry): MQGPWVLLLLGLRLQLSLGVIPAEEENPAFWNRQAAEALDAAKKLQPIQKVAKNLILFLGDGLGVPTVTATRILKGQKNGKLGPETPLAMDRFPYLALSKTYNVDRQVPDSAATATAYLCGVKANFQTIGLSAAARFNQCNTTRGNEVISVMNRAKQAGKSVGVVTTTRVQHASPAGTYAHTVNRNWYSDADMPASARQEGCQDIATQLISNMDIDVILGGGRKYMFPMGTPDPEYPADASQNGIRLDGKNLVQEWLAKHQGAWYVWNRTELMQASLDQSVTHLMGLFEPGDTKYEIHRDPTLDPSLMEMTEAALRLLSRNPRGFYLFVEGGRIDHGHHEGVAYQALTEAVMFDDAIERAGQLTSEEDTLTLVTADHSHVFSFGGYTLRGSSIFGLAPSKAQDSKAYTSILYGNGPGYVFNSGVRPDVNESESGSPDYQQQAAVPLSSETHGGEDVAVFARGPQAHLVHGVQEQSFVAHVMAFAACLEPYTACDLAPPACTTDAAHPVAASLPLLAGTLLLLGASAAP

Trypsin = Trypsin (Sus scrofa, UniProt P00761); assay: trypsin protease activity blockade – biochemical, quenched peptide fluorescence, cherry-pick, selectivity assay for Rce1 protease inhibitor project, dose response (AID 488789)
Trypsin, sequence (P00761 whole entry): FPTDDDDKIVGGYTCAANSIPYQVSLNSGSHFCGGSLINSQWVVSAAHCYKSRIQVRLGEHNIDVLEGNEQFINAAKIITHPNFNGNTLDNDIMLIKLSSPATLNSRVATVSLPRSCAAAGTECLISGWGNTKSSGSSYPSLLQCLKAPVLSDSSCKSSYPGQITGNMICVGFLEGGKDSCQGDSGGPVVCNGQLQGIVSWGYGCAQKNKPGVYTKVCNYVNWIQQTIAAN

CAAX prenyl protease 2 = CAAX prenyl protease 2 (Saccharomyces cerevisiae S288c, UniProt Q03530); assay type: biochemical
CAAX prenyl protease 2, sequence (Q03530 whole entry): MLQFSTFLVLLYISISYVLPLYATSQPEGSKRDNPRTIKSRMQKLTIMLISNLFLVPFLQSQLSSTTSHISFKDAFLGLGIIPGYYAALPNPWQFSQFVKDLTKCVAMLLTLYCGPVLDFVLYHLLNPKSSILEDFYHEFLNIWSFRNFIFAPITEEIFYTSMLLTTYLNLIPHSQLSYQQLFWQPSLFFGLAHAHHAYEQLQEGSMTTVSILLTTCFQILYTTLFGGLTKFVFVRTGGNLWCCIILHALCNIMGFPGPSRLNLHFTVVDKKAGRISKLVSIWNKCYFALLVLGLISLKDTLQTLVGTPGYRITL

[10] = target: Glyceraldehyde-3-phosphate dehydrogenase (Homo sapiens, UniProt P04406)
Glyceraldehyde-3-phosphate dehydrogenase, sequence (P04406 whole entry): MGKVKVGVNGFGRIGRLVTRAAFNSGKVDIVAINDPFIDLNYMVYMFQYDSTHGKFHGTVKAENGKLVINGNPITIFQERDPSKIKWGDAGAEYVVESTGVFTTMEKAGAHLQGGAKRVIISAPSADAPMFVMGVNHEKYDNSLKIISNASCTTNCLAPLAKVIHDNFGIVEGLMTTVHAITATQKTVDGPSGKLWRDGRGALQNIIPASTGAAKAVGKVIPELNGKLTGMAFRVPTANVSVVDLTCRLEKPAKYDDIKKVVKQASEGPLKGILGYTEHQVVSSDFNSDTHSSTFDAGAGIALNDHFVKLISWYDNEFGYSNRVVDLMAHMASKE

[11] = target: T5, Alkaline phosphatase, tissue-nonspecific isozyme (Homo sapiens, UniProt P05186); assay: potency against alkaline phosphatase TNAP – biochemical, luminescent, dose response, SAR follow-up (AID 1056)
T5 sequence (P05186 whole entry): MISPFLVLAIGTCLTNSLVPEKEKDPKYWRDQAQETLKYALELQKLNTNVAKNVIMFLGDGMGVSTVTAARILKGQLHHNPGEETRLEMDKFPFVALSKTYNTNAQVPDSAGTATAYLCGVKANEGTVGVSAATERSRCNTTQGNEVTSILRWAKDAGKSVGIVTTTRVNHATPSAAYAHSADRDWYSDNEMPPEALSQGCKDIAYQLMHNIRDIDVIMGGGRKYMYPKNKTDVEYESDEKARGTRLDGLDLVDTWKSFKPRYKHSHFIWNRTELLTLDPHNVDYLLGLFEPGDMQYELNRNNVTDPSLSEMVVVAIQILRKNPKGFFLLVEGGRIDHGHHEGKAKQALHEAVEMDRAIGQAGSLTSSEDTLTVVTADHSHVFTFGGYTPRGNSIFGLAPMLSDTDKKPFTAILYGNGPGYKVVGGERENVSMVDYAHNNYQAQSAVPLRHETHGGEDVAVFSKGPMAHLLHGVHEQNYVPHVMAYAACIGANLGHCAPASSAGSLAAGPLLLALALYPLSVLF

[12] = target: T6, Rac GTPase-activating protein 1 (Homo sapiens, UniProt Q9H0H5); assay: blockers of MgcRacGAP-driven Rac1 GTP hydrolysis – biochemical, ADP Hunter fluorescence, primary and confirmatory, confirmation (AID 624330); assay type: functional
T6 sequence (Q9H0H5 whole entry): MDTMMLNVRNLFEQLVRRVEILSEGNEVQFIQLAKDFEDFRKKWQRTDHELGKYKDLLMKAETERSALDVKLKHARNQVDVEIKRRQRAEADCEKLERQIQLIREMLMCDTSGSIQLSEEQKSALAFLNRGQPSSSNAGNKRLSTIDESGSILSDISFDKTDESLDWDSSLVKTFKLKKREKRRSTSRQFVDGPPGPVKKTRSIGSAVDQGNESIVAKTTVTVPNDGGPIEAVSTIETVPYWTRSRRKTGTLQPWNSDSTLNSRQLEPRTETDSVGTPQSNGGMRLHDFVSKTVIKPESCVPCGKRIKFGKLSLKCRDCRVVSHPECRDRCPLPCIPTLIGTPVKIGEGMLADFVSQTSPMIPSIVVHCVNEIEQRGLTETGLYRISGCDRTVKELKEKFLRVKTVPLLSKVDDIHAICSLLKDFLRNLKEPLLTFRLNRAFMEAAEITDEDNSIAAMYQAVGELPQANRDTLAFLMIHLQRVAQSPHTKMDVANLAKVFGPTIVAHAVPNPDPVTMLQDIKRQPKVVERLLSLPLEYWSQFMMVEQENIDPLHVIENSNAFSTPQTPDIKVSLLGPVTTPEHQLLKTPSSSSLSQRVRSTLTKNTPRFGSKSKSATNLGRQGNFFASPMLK

[13] = target: Induced myeloid leukemia cell differentiation protein Mcl-1 (Homo sapiens, UniProt Q07820); assay type: functional
Induced myeloid leukemia cell differentiation protein Mcl-1, sequence (Q07820 whole entry): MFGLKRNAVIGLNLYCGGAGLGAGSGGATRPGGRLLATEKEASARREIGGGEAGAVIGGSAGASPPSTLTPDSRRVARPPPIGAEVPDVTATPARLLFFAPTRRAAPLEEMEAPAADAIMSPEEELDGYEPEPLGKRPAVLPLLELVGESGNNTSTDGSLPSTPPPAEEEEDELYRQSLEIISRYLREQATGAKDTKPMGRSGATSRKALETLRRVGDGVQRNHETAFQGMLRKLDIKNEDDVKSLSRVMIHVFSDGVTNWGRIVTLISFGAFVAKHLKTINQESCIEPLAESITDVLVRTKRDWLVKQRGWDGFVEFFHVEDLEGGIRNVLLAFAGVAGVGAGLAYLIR

Trypanosoma cruzi = assay: anti-trypanosomal activity in host cells – cell-based, plate reader, dry powder, set 3, dose response (AID 493197); assay type: functional
[14] = target: Glucose-6-phosphate 1-dehydrogenase (Homo sapiens, UniProt P11413); assay: inhibition of Homo sapiens G6PD, dose series – biochemical, fluorescence, selectivity assay for P. falciparum G6PD inhibitor project, dose response (AID 504792); assay type: functional
Glucose-6-phosphate 1-dehydrogenase, sequence (P11413 whole entry): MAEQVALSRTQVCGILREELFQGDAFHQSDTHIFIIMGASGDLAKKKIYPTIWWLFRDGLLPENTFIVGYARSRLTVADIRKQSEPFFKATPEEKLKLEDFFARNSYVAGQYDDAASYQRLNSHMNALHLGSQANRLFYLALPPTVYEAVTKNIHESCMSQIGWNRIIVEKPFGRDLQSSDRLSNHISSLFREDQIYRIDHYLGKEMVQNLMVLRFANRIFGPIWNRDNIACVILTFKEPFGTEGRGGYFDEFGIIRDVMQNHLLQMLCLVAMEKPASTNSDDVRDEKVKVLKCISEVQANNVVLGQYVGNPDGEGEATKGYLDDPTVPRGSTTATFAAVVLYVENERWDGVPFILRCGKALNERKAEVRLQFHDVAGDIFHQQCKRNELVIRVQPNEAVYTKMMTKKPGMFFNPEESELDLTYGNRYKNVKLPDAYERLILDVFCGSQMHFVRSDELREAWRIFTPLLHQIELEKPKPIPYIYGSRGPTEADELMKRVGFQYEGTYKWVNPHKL

[15] = target: T7, Eukaryotic translation initiation factor 2-alpha kinase 3 (Homo sapiens, UniProt Q9NZJ5); assay: Dose response cell-based high-throughput screening assay to measure PERK inhibition. [Related pubchem assays: 1416 ]; assay type: functional
T7 sequence (Q9NZJ5 whole entry): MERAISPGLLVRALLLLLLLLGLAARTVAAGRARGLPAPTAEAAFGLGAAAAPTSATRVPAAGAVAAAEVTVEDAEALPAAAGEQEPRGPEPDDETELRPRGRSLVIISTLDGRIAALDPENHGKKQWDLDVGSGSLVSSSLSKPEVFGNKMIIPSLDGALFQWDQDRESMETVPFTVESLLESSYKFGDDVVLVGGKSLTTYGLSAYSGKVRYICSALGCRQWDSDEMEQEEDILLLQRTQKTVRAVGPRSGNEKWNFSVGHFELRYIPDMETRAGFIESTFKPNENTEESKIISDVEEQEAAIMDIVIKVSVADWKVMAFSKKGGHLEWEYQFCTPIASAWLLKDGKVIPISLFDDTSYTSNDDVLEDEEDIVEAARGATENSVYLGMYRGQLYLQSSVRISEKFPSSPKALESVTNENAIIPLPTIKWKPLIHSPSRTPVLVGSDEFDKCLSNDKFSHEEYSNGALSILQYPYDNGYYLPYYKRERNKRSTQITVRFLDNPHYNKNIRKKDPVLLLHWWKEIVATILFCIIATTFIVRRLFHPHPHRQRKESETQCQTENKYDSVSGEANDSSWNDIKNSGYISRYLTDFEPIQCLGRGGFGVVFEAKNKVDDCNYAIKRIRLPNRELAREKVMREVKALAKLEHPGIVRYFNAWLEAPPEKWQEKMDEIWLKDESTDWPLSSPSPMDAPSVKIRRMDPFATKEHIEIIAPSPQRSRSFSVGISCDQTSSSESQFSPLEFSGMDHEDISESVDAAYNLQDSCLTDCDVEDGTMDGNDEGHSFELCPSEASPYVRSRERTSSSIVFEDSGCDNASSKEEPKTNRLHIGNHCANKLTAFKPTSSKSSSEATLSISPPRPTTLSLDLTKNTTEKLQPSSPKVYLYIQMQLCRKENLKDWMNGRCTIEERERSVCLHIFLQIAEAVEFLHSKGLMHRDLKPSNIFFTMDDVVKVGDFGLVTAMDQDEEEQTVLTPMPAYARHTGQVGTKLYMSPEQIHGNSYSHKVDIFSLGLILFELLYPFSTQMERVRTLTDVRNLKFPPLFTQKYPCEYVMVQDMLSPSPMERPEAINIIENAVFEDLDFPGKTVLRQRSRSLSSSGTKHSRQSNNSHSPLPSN

[16] = target: T7, Eukaryotic translation initiation factor 2-alpha kinase 3; assay: Counterscreen assay for PERK inhibitors: Dose response cell-based high throughput screening assay to measure inhibition of PERK at 6 hours. [Related pubchem assays: 1522, 1416 ]; assay type: functional

IC50 (Coagulation factor XII): > 50 µM (inactive)
Structure (SMILES): Cc1ccc(-c2n[nH]c(=O)c3ccccc23)cc1S(=O)(=O)NCCO

IC50 [9]: > 100 µM (inactive)
Structure (SMILES): COc1ccc(CCN2C(=O)c3ccncc3C2=O)cc1OC

IC50 [10]: > 10 µM (inconclusive) | IC50 [11]: > 10 µM (inactive)
Structure (SMILES): COc1ccccc1C(=O)Nc1cnc2ccccc2c1

IC50 [12]: 59.2 µM (active) | IC50 [3]: 50 µM (inactive) | IC50 [13]: 1.67 µM (active)
Structure (SMILES): O=C1C=CC(=Nc2nc(O)c(-c3c(O)[nH]c4ccccc34)s2)C=C1

EC50 [15]: > 55.7 µM (not active) | EC50 [16]: > 55.7 µM (not active)
Structure (SMILES): C/C(=N/N=C1\SCC(=O)N1c1ccccc1)c1ccc(C)cc1

Further lines, the compound ahead of its results:

Structure (SMILES): Cc1ccc(-c2cn3c(S)nnc3s2)cc1
IC50 [1]: 2.61 µM (active) | IC50 [2]: > 100 µM (inactive)

Structure (SMILES): CSc1cccc(NC(=S)N(Cc2ccc(C)cc2)Cc2cccnc2)c1
IC50 [3]: 50 µM (inactive)

Structure (SMILES): COC(=O)c1c(NC(=O)c2cccc([N+](=O)[O-])c2)sc(C(N)=O)c1C
IC50 [4]: > 80 µM (inactive)

Structure (SMILES): Oc1ccc(-c2cnns2)c(O)c1
IC50 [5]: 19.9 µM (active) | EC50 [6]: 10.4 µM (active) | EC50 [7]: 45.5 µM (active) | IC50 [8]: 31.5 µM (active)

Structure (SMILES): COC(=O)c1cnn2c3c(c(C)nc12)CCCC3
AC50 (Trypsin): 8.29 µM (active) | AC50 (CAAX prenyl protease 2): 10.3 µM (active)

Structure (SMILES): CN(Cc1ccccc1)C(=O)C1CCCN(Cc2ccccc2)C1 (stereo not given)
AC50 (Trypanosoma cruzi): 5.07 µM (active)

Structure (SMILES): COc1cc(/C=N/n2cc(-c3ccccc3)nc2S)cc(OC)c1O
IC50 [14]: > 80 µM (inactive) | IC50 [1]: 5.9 µM (active) | IC50 [2]: > 100 µM (inactive)

Structure (SMILES): N/C(=N\N=C\c1ccc([N+](=O)[O-])cc1)c1nonc1N
EC50 [15]: > 55.7 µM (not active) | EC50 [16]: > 55.7 µM (not active)
